# Measured values published in patent US12685732B2, “Composition for improving, preventing or treating muscular disorders including sulfonamide-based compounds” (The Industry & Academic Cooperation in Chungnam National …, priority 2022, dated 2026).
# Experiments:
# [1] = test system: C2C12-PHF20/YY1-promoter-GFP cell line; experiment: HTS system: GFP (green luminescence) in PHF20-overexpressing myoblasts carrying YY1 promoter-GFP; format: cell-based, mouse; conditions: 10 μM compound, 24 h, after 250 ng/ml doxycycline 24 h; FDA-approved drug library of 1670 compounds
# Description: C2C12 myoblasts, which were stable cells in which PHF20 was overexpressed, were transformed with a plasmid coexisting with a YY1 promoter and GFP, which inhibited muscle differentiation, to prepare a stable cell line. The degree of GFP signal suppression was quantified and measured, and the degree of muscle differentiation was used as a quantitative measurement index (FIG. 1).
# Specifically, the C2C12-PHF20/YY1-promoter-GFP cell line according to Example 1 was dispensed in a 96-well plate at 0.5×10^5, cultured for 24 hours, and cells in a 70% confluent state were treated with 250 ng/ml of doxycycline for 24 hours, and then treated with each compound at a final concentration of 10 μM.
# For fluorescence intensity, C2C12-PHF20/YY1-promoter-GFP cells were dispensed at 4×10^5 in a 6-well culture plate and cultured for 24 hours. […] Thereafter, the degree of green luminescence was confirmed using GloMax microplate readers explorer (Promega, Madison, Wisconsin, USA).
# [2] = Body weight in aging mouse model; format: in vivo; conditions: oral 5, 50, 500 mpk daily for 28 days, vs PBS
# Description: (§1) In order to confirm the treadmill exercise capacity according to a dose of sulfasalazine, the mice divided in 3-1 above were orally administered at 10:30 every day for 28 days with Group 1 of PBS (Hyclone Dulbecco's Phaosphate Buffer saline Cat. SH30028.02), Group 2 of sulfasalazine (Sigma, Cat. Nr S0883. CAS Number 599-79-1) 5 mpk, Group 3 of sulfasalazine 50 mpk, and Group 4 of sulfasalazine 500 mpk. In order to reduce an error on treadmill exercise ability, the mice were starved for 3 hours before measuring the treadmill, and then the treadmill was performed 4 times at 7-day intervals (0 days, 7 days, 14 days, and […]) according to Table 1 below.
# For a total of 28 days, the body weight of the mouse was measured, and any change in body weight was confirmed.
# [3] = test system: high-fat diet CTX-induced sarcopenia mouse model; experiment: Rota Rod balance ability in high-fat diet CTX-induced sarcopenia mouse model; format: in vivo; conditions: oral 5, 50, 500 mg/kg daily for 14 days; days 4, 8, 12; vs group injected with CTX
# Description: (§2) In order to construct a high-fat diet CTX-induced sarcopenia mouse model, for 23-week-old C57BL/6J male mice subjected to 60% HFD for 19 weeks, cardiotoxin (LATOXAN, Portes-lés-Valence, France) was dissolved at 1 mg/ml in PBS to make a high-concentration stock solution. For application to mice, the stock solution was diluted again in PBS (Hyclone Dulbecco's Phaosphate Buffer saline Cat. SH30028.02) to a final concentration of 0.03 mg/ml and used, and intramuscularly injected into both quadriceps muscles of the mouse using a 1 ml syringe (24 G) to construct the high-fat diet CTX-induced sarcopenia mouse model.
# (§3) Five groups of Group 1 of orally administering PBS to a high-fat diet mouse without injecting CTX, Group 2 of orally administering PBS to a high-fat diet mouse injected with CTX, Group 3 of orally administering sulfasalazine 5 mg/kg to the high-fat diet mouse injected with CTX, Group 4 of orally administering sulfasalazine 50 mg/kg to the high-fat diet mouse injected with CTX, and Group 5 of orally administering sulfasalazine 500 mg/kg to the high-fat diet mouse injected with CTX were divided and orally administered at 10 am every day for 14 days, and the body weights were measured and the results were shown in FIG. 13. […]
# [4] = test system: Velcro injured sarcopenia mouse model; experiment: Treadmill exercise capacity in Velcro injured sarcopenia mouse model; format: in vivo; conditions: oral 5, 50, 500 mg/kg; days 0, 3, 6, 10, 14; after day 6 of administration
# Description: (§4) The left leg of an 8-week-old C57BL/6J male mouse was anesthetized with isoflurane, the entire leg was wound from the ankle with a 5 cm sports tape, and then wound and fixed with a Velcro with a width of 10 mm, and the Velcro condition was checked every day for 14 days (FIG. 16). Meanwhile, in the present disclosure, Velcro injury means that muscle damage is caused by such Velcro by winding the muscle with the Velcro so as not to move.
# (§5) In order to confirm the amount of treadmill exercise according to the dose of sulfasalazine, Group 1 (n=5) of orally administering PBS to 8-week-old C57BL/6J male mice without injury, Group 2 (n=5) of orally administering PBS to mice with Velcro injury, Group 3 (n=5) of orally administering sulfasalazine 5 mg/kg to mice with Velcro injury, Group 4 (n=5) of orally administering sulfasalazine 50 mg/kg to mice with Velcro injury, and Group 5 (n=5) of orally administering sulfasalazine 500 mg/kg to mice with Velcro injury were divided and orally administered at 10 am every day for 14 days, and the body weights were measured and the results were illustrated in FIG. 18. […]
# [5] = Body weight in Velcro injured sarcopenia mouse model; format: in vivo; conditions: oral 5, 50, 500 mg/kg daily for 14 days
# Description: as §4, §5
# For a total of 14 days, the body weights of the mice were measured, and any change in body weight was confirmed.
# aging mouse model [6] = experiment: Treadmill exercise capacity in aging mouse model; format: in vivo; conditions: oral 5, 50, 500 mpk daily for 28 days, vs PBS (G1)
# Description: Treadmill adaptation was performed randomly for 3 days under conditions of grade 0, speed 15 (cm/sec), 10 minutes, electrical stimulation […] (defined as exhaustion when electrical stimulation occurred consecutive 4 times or more), and according to the treadmill result, mice with similar ability were distributed into each group and divided into 4 groups of 8 mice per group.
# as §1
# [7] = Body weight in high-fat diet CTX-induced sarcopenia mouse model; format: in vivo; conditions: oral 5, 50, 500 mg/kg daily for 14 days
# Description: as §2
# Five groups of Group 1 of orally administering PBS to a high-fat diet mouse without injecting CTX, Group 2 of orally administering PBS to a high-fat diet mouse injected with CTX, Group 3 of orally administering sulfasalazine 5 mg/kg to the high-fat diet mouse injected with CTX, Group 4 of orally administering sulfasalazine 50 mg/kg to the high-fat diet mouse injected with CTX, and Group 5 of orally administering sulfasalazine 500 mg/kg to the high-fat diet mouse injected with CTX were divided and orally administered at 10 am every day for 14 days, and the body weights were measured and the results were shown in FIG. 13.
# aging mouse model [8] = experiment: Rota Rod balance ability in aging mouse model; format: in vivo; conditions: oral 5, 50, 500 mg/kg daily for 28 days; days 0, 7, 14, 21, 28
# Description: (§6) In order to confirm the balance ability and the grip strength recovery effect of the Rota Rod according to a dose of sulfasalazine, 50-week-old C57BL/6J male mice were divided into Group 1 of PBS, Group 2 of sulfasalazine 5 mg/kg, Group 3 of sulfasalazine 50 mg/kg, and Group 4 of sulfasalazine 500 mg/kg, and orally administered every day at 10 am for 28 days, and then the body weight was measured.
# (§7) The Rota Rod was measured on days 0, 7, 14, 21, and 28 with the animal group constructed in Group 2 under the conditions shown in Table 2 below, and the results were shown in FIG. 11 ((*) p≤0.05 vs G1). In the same animal group as the Rota Rod, the grip strength was measured on the 2 paws and 4 paws of the mouse on days 0, 9, 16, 23, and 28, and the results were shown in FIGS. 12A and 12B.
# aging mouse model [9] = experiment: Grip strength in aging mouse model; format: in vivo; conditions: oral 5, 50, 500 mg/kg daily for 28 days; vs control Group 1
# Description: as §6, §7
# [10] = test system: high-fat diet CTX-induced sarcopenia mouse model; experiment: Grip strength in high-fat diet CTX-induced sarcopenia mouse model; format: in vivo; conditions: oral 5, 50, 500 mg/kg daily for 14 days; days 5, 9, 13; vs group injected with CTX
# Description: as §2, §3
smiles,measurement,setting,value
Cc1nnc(NS(=O)(=O)c2ccc(N)cc2)s1 [sulfamethizole],degree of green luminescence (GFP inhibition) in screening,[1],effect of reducing green luminescence
Nc1ccc(S(=O)(=O)Nc2ccccn2)cc1 [sulfapyridine],degree of green luminescence (GFP inhibition) in screening,[1],effect of reducing green luminescence
Nc1ccc(S(=O)(=O)Nc2ccnn2-c2ccccc2)cc1 [sulfaphenazole],degree of green luminescence (GFP inhibition) in screening,[1],effect of reducing green luminescence
N=C(N)NS(=O)(=O)c1ccc(N)cc1 [sulfaguanidine],degree of green luminescence (GFP inhibition) in screening,[1],effect of reducing green luminescence
Nc1ccc(S(N)(=O)=O)cc1 [sulfanilamide],degree of green luminescence (GFP inhibition) in screening,[1],effect of reducing green luminescence
Nc1ccc(S(=O)(=O)Nc2ncccn2)cc1 [sulfadiazine],degree of green luminescence (GFP inhibition) in screening,[1],effect of reducing green luminescence
O=C(O)c1cc(/N=N/c2ccc(S(=O)(=O)Nc3ccccn3)cc2)ccc1O [sulfasalazine],degree of green luminescence (GFP inhibition) in screening,[1],effect of reducing green luminescence
same,body weight,[2],no difference in body weight was observed
same,balance ability on the Rota Rod,[3],recovery of balance ability of the mouse on the Rota Rod was improved
same,treadmill running distance,[4],treadmill running distances were increased as the administration period was increased
same,treadmill running time,[4],treadmill running time was increased as the administration period was increased
same,body weight,[5],no difference in body weight was observed
same,treadmill exercise capacity (latency to fall),aging mouse model [6],"the higher the sulfasalazine dose, the higher the treadmill exercise capacity"
same,body weight,[7],no difference in body weight was observed
same,balance ability on the Rota Rod,aging mouse model [8],recovery of balance ability of the mouse on the Rota Rod was improved
same,"grip strength, 2 paws",aging mouse model [9],grip strength was improved with the increase in sulfasalazine dose
same,"grip strength, 4 paws",aging mouse model [9],grip strength was improved with the increase in sulfasalazine dose
same,"grip strength, 2 paws",[10],grip strength was improved with the increase in sulfasalazine dose
same,"grip strength, 4 paws",[10],grip strength was improved with the increase in sulfasalazine dose
COc1cc(NS(=O)(=O)c2ccc(N)cc2)nc(OC)n1 [sulfadimethoxine],degree of green luminescence (GFP inhibition) in screening,[1],effect of reducing green luminescence
COc1ncnc(NS(=O)(=O)c2ccc(N)cc2)c1OC [sulfadoxin],degree of green luminescence (GFP inhibition) in screening,[1],effect of reducing green luminescence
COc1cnc(NS(=O)(=O)c2ccc(N)cc2)nc1 [sulfameter],degree of green luminescence (GFP inhibition) in screening,[1],effect of reducing green luminescence
Nc1ccc(S(=O)(=O)Nc2nccs2)cc1 [sulfathiazole],degree of green luminescence (GFP inhibition) in screening,[1],effect of reducing green luminescence
